For the experiment, the system named is Rattus norvegicus. Kind of experiment: Antihyperglycemic activity in Streptozotocin-induced diabetic Wistar rat assessed as decrease in blood glucose level at 31 mg/kg, po after 7 hrs. It counts as functional. Details: scale not given: the % may be the effect or the level left.

In the case of `CC(=O)O[C@H]1CC[C@]2(C)[C@H]3CC=C4[C@@H]5CC(C)(C)CC[C@]5(C(=O)O)CC[C@@]4(C)[C@]3(C)CC[C@H]2C1(C)C` [ACETYL OLEANOLIC ACID], the Activity is -26.3%.

The record behind these values is ChEMBL document CHEMBL1158121, “Antihyperglycemic activity and chemical constituents of Eysenhardtia platycarpa” (2006).
